Laboratory results from ChEMBL document CHEMBL2034897, “Discovery and optimization of benzenesulfonanilide derivatives as a novel class of 11β-HSD1 inhibitors” (Bioorg Med Chem Lett, 2012).

Target: 11-beta-hydroxysteroid dehydrogenase 1 (Homo sapiens, UniProt P28845)
Assay: Inhibition of human 11beta-HSD1 using [3H]cortisone as substrate assessed as production of [3H]-cortisol by scintillation proximity assay

Sequence of 11-beta-hydroxysteroid dehydrogenase 1 (P28845 whole entry): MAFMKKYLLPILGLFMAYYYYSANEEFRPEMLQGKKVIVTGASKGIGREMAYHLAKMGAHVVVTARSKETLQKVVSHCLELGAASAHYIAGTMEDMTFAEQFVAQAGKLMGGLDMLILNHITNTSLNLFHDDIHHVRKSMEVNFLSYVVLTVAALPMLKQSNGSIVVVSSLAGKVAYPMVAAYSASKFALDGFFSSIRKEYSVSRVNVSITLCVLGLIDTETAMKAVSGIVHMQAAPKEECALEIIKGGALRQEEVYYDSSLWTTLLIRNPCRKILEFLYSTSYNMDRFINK

| IC50 [nM] | SMILES |
| --- | --- |
| > 1000 | CN(c1ccc(C(C)(O)C(F)(F)F)cc1)S(=O)(=O)c1ccccc1 (racemic) |
| > 1000 | CC(O)(c1ccc(NS(=O)(=O)c2ccccc2)cc1)C(F)(F)F (racemic) |
